IC50 data for 24 molecules are collected here from patent publication US6632829B2, “Sulfonamides and derivatives thereof that modulate the activity of endothelin” (Texas Biotechnology Corp., priority 1996, dated 2003).

The target in one test is T1, human ETA receptors (Homo sapiens, UniProt P25101).
T1 construct: endogenous in cells; host or cells: TE 671 cells (ATCC HTB 139), membrane preparation
T1 sequence (P25101 21-427): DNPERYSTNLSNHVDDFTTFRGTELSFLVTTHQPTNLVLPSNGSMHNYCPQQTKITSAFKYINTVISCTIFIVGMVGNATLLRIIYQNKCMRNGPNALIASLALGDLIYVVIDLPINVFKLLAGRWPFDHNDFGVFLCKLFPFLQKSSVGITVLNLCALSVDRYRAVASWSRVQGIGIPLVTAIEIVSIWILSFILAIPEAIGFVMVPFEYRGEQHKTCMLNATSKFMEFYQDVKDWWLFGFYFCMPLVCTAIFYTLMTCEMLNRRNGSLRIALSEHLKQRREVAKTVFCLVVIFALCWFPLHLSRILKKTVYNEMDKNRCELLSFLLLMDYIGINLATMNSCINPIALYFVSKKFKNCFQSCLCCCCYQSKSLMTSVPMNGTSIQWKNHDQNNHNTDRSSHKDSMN
Description: Endothelin binding inhibition, Binding Test #1: competition with 125I-ET-1 for ETA receptors on TE 671 cell membranes.

Another test concerns the target T2, human ETB receptor (Homo sapiens, UniProt P24530).
T2 construct: expressed in transfected cells; host or cells: COS7 cells
T2 sequence (P24530 27-442): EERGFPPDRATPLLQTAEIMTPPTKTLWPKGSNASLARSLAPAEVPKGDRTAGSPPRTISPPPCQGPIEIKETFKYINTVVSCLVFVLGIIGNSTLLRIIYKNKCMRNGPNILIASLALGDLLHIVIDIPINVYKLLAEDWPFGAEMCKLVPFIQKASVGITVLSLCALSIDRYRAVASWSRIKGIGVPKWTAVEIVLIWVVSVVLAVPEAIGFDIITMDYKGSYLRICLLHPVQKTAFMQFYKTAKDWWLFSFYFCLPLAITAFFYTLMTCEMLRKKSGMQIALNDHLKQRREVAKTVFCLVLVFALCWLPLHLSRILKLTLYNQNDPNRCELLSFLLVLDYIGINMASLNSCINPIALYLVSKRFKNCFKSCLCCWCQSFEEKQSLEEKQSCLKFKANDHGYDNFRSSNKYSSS
Put plainly: Endothelin binding inhibition, Binding Test #2: competition with 125I-ET-1 for ETB receptors on transfected COS7 cell membranes. The essentials:
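Membranes from COS7 cells transfected with human ETB receptor, prepared in HEPES pH 7.4 with aprotinin, MnCl2/DNase treatment at 37° C for 30 min. Test compounds compete with 125I-labeled ET-1 for receptor binding; membrane used at 1 μg/50 μL binding buffer.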

[1] abbreviates: incubation at 24° C. (values marked †).
The mark [2] stands for this setting: incubation at 4° C. (values without †).

Consider `COc1ccc(Cc2sc3ccccc3c2S(=O)(=O)Nc2onc(C)c2Br)cc1OC` [N-(4-bromo-3-methyl-5-isoxazolyl)-2-(3,4-dimethoxybenzyl)benzo[b]thiophene-3-sulfonamide], for which the IC50 on human ETA receptors (setting [1]) was 0.021 ± 0.017 µM; on human ETB receptor (setting [1]), 2.94 ± 1.32 µM.

Consider `Cc1noc(NS(=O)(=O)c2ccsc2C(=O)OCc2ccc3c(c2)OCO3)c1Cl` [N-(4-chloro-3-methyl-5-isoxazolyl)-2-[3,4-(methylenedioxy)benzyloxycarbonyl]thiophene-3-sulfonamide], for which the IC50 on human ETA receptors (setting [1]) came out at 0.42 µM; at human ETB receptor (setting [1]), 12 µM.

As to `Cc1noc(NS(=O)(=O)c2ccsc2C(=O)Oc2cccc(N(C)C)c2)c1Cl` [N-(4-chloro-3-methyl-5-isoxazolyl)-2-[(3-dimethylamino)phenoxycarbonyl]thiophene-3-sulfonamide], the 50% inhibitory concentration (IC50) is 1.4 µM on human ETA receptors (setting [1]) and 60 µM on human ETB receptor (setting [1]).

For `Cc1noc(NS(=O)(=O)c2sccc2Cc2ccc3c(c2)OCO3)c1Br` [N-(4-bromo-3-methyl-5-isoxazolyl)-3-[(3,4-methylenedioxy)benzyl]thiophene-2-sulfonamide], the IC50 amounted to 8.1 µM at human ETA receptors (setting [1]) and 3.2 µM at human ETB receptor (setting [1]).

As to `Cc1noc(NS(=O)(=O)c2ccsc2C/C=C/c2ccc3c(c2)OCO3)c1Br` [N-(4-bromo-3-methyl-5-isoxazolyl)-2-[trans-(3,4-methylenedioxy)cinnamyl]thiophene-3-sulfonamide], the IC50 at human ETA receptors (setting [1]) worked out at 0.14 µM; at human ETB receptor (setting [1]), 1.4 µM.

On to `Cc1noc(NS(=O)(=O)c2ccsc2NC(=O)Nc2ccc3c(c2)OCO3)c1Br` [N-(4-bromo-3-methyl-5-isoxazolyl)-2-[(3,4-methylenedioxy)phenylureido]thiophene-3-sulfonamide], for which the IC50 on human ETA receptors (setting [1]) worked out at 0.57 µM; at human ETB receptor (setting [1]) it was 1.3 µM.

Turning to `Cc1noc(NS(=O)(=O)c2ccsc2C(=O)Cc2ccc3c(c2)OCO3)c1Cl` [N-(4-chloro-3-methyl-5-isoxazolyl)-2-[3,4-(methylenedioxy)phenylacetyl]thiophene-3-sulfonamide], the values for the IC50 at human ETA receptors (setting [1]) and on human ETB receptor (setting [1]) were 0.021 µM and 6.5 µM, respectively.

In the case of `Cc1cc2c(cc1C=CCc1ccsc1S(=O)(=O)Nc1onc(C)c1Br)OCO2` [N-(4-bromo-3-methyl-5-isoxazolyl)-3-[2-methyl-4,5-(methylenedioxy)cinnamyl]thiophene-2-sulfonamide], the IC50 is around 0.1 µM at human ETA receptors (setting [1]) and around 6 µM at human ETB receptor (setting [1]).

Turning to `Cc1noc(NS(=O)(=O)c2sccc2-c2ccc(CCC(C)C)cc2)c1Br` [N-(4-bromo-3-methyl-5-isoxazolyl)-3-(4-iso-pentylphenyl)thiophene-2-sulfonamide], the IC50 on human ETA receptors (setting [1]) was 0.155 µM; on human ETB receptor (setting [1]), 3.31 µM.

As to `Cc1cc2c(cc1CC(=O)c1sccc1S(=O)(=O)Nc1onc(C)c1C)OCO2` [N-(3,4-dimethyl-5-isoxazolyl)-2-[2-methyl-4,5-(methylenedioxy)phenylacetyl]thiophene-3-sulfonamide], the IC50 on human ETA receptors (setting [1]) was 0.00328 µM; at human ETB receptor (setting [1]), 34.3 µM.

As to `Cc1noc(NS(=O)(=O)c2ccsc2C(=O)Nc2ccc3c(c2)OCO3)c1Br` [N-(4-bromo-3-methyl-5-isoxazolyl)-2-[(3,4-methylenedioxyphenyl)aminocarbonyl]thiophene-3-sulfonamide], the IC50 was determined as 0.017 µM on human ETA receptors (setting [1]) and 9.8 µM at human ETB receptor (setting [1]).

With “N-(4-chloro-3-methyl-5-isoxazolyl)-2-[2-methyl-4,5-(methylenedioxy)phenylhydroxyimino]thiophene-3-sulfonamide”, the IC50 at human ETA receptors (setting [1]) worked out at 0.794 µM; at human ETB receptor (setting [1]), 6.49 µM.

`Cc1cc(CC(C)C)ccc1-c1ccsc1S(=O)(=O)Nc1onc(C)c1Br` [N-(4-bromo-3-methyl-5-isoxazolyl)-3-(4-iso-butyl-2-methylphenyl)thiophene-2-sulfonamide]: the IC50 at human ETA receptors (setting [1]) came out at 0.0468 µM; at human ETB receptor (setting [1]), 1.66 µM.

Turning to `Cc1noc(NS(=O)(=O)c2ccsc2C(=O)C(O)c2ccc3c(c2)OCO3)c1Cl` (stereo not drawn) [N-(4-chloro-3-methyl-5-isoxazolyl)-2-{α-hydroxy-[3,4-(methylenedioxy)phenyl]acetyl}thiophene-3-sulfonamide], the figures for the IC50 at human ETA receptors (setting [1]) and on human ETB receptor (setting [1]) were 2.5 µM and 30 µM, respectively.

On to `COc1ccc2c(S(=O)(=O)Nc3onc(C)c3Cl)c(Cc3ccc4c(c3)OCO4)sc2c1` [N-(4-chloro-3-methyl-5-isoxazolyl)-6-methoxy-2-[3,4-(methylenedioxy)benzyl]benzo[b]thiophene-3-sulfonamide], for which the results for the IC50 on human ETA receptors (setting [1]) and on human ETB receptor (setting [1]) were around 2 µM and 2.39 µM, respectively.

In the case of `Cc1noc(NS(=O)(=O)c2ccsc2C(=O)Cc2ccc3c(c2)OCO3)c1C` [N-(3,4-dimethyl-5-isoxazolyl)-2-[3,4-(methylenedioxy)phenylacetyl]thiophene-3-sulfonamide], the concentration for half-maximal inhibition (IC50) came out at 0.0273 µM on human ETA receptors (setting [1]) and 12.2 µM at human ETB receptor (setting [1]).

As to `Cc1noc(NS(=O)(=O)c2ccsc2C(=O)Nc2ccc(O)nn2)c1Br` [N-(4-bromo-3-methyl-5-isoxazolyl)-2-[(3-hydroxyl-6-pyridazinyl)aminocarbonyl]thiophene-3-sulfonamide], the figures for the IC50 at human ETA receptors (setting [1]) and at human ETB receptor (setting [1]) were 0.066 µM and 81.3 µM, respectively.

`Cc1noc(NS(=O)(=O)c2csc(-c3ccccc3C=O)c2)c1Br` [N-(4-bromo-3-methyl-5-isoxazolyl)-5-(2-formylphenyl)thiophene-3-sulfonamide]: the IC50 at human ETA receptors (setting [2]) stood at 3.46 µM; at human ETA receptors (setting [1]), 12.3 µM; at human ETB receptor (setting [2]) it was 0.529 µM; at human ETB receptor (setting [1]), 1.28 ± 0.71 µM.

With `Cc1cc(CCC(C)C)ccc1-c1ccsc1S(=O)(=O)Nc1onc(C)c1Br` [N-(4-bromo-3-methyl-5-isoxazolyl)-3-(4-iso-pentyl-2-methylphenyl)thiophene-2-sulfonamide], the IC50 was found to be 0.107 µM on human ETA receptors (setting [1]) and 2.4 µM at human ETB receptor (setting [1]).

As to `COc1cc(Cc2sc3ccccc3c2S(=O)(=O)Nc2onc(C)c2Br)cc(OC)c1OC` [N-(4-bromo-3-methyl-5-isoxazolyl)-2-(3,4,5-trimethoxybenzyl)-benzo[b]thiophene-3-sulfonamide], the results for the IC50 at human ETA receptors (setting [1]) and at human ETB receptor (setting [1]) were 0.013 µM and 1.2 µM, respectively.

On to `Cc1noc(NS(=O)(=O)c2ccsc2C(=O)Nc2ccccc2C(=O)O)c1Br` [N-(4-bromo-3-methyl-5-isoxazolyl)-2-[2-carboxylphenyl)aminocarbonyl]-thiophene-3-sulfonamide], for which the IC50 stood at 0.21 µM on human ETA receptors (setting [1]) and 20 µM at human ETB receptor (setting [1]).

`COc1cccc(NCc2sccc2S(=O)(=O)Nc2onc(C)c2C)c1` [N-(3,4-dimethyl-5-isoxazolyl))-2-[(3-methoxyanilino)methyl]thiophene-3-sulfonamide]: the IC50 at human ETA receptors (setting [2]) was 0.214 µM; on human ETA receptors (setting [1]) it was 0.933 µM; at human ETB receptor (setting [2]) it was 5.34 µM; at human ETB receptor (setting [1]) it was 7.7 µM.

For the molecule `Cc1ccc(OCc2sccc2S(=O)(=O)Nc2onc(C)c2Br)cc1` [N-(4-bromo-3-methyl-5-isoxazolyl)-2-[(4-methylphenoxy)methyl]thiophene-3-sulfonamide], the IC50 on human ETA receptors (setting [1]) is 1.2 µM; at human ETB receptor (setting [1]), 15 µM.

Turning to `Cc1noc(NS(=O)(=O)c2c(Cc3ccc4c(c3)OCO4)sc3ccccc23)c1Br` [N-(4-bromo-3-methyl-5-isoxazolyl)-2-[3,4-(methylenedioxy)benzyl]benzo[b]thiophene-3-sulfonamide], the IC50 at human ETA receptors (setting [2]) was 0.0015 ± 0.0014 µM; at human ETA receptors (setting [1]), 0.0074 ± 0.0011 µM; at human ETB receptor (setting [2]), 0.324 ± 0.78 µM; on human ETB receptor (setting [1]), 0.939 ± 0.262 µM.

In general, IC50 refers to the midpoint of a concentration-inhibition curve. A lower IC50 goes with inhibition by little substance.
